How the values were obtained:
Format in all cases: in vivo, rat
[1] = test system: orchiectomized (ORX) rats; assay: Test Example 3: effect on prostate, levator ani muscle and femoral bone mineral density in ORX rats (subcutaneous); conditions: for Femoral bone mineral density / Weight of levator ani muscle / Weight of prostate: 5 days a week, 4 weeks
Protocol: (§1) Testes were removed from 12-week-old male SD rats. Starting on the next day, the compound of Example 12 or 65 (30 mg/kg) or DHT (0.1, 1, 10 mg/kg) was subcutaneously administered once daily for four consecutive weeks on a 5-day-a-week basis. The Example compounds and DHT were dissolved in dimethyl sulfoxide and diluted 10-fold with olive oil to prepare solutions with various concentrations for use in the test. In an ORX control group, dimethyl sulfoxide as diluted 10-fold with olive oil was used for the test. Rats which had been falsely operated on without orchiectomy were used as a sham control group. On the next day after final administration, the wet weights of the ventral prostate and levator ani muscle were measured and the right femoral bone mineral density was measured by DEXA (double energy X-ray absorption) to evaluate the in vivo efficacy of the compounds of Example 12 and 65.

[2] = test system: orchiectomized (ORX) rats; assay: Test Example 6: effect of oral administration on prostate, levator ani muscle and femoral bone mineral density in ORX rats; conditions: for Femoral bone mineral density / Weight of levator ani muscle / Weight of prostate: 7 days a week
Protocol: (§2) Testes were removed from 12-week-old male SD rats. Starting on the next day, the compound of Example 108 (30 mg/5 ml/kg) was orally administered once daily for four consecutive weeks on a 7-day-a-week basis. As a positive control, methyl testosterone (MT) (100 mg/5 ml/kg) was orally administered once daily on a continuous 7-day-a-week basis. The test compound was suspended in a 0.5% methyl cellulose solution used as a solvent and the suspension was used in the test. In an ORX control group, a 0.5% methyl cellulose solution (5 ml/kg) was administered. Rats which had been falsely operated on without orchiectomy were used as a sham control group. On the next day after final administration, the wet weights of the ventral prostate and levator ani muscle were measured and the right femoral bone mineral density was measured by DEXA (double energy X-ray absorption) to evaluate the in vivo efficacy of the compound of Example 108. The results are shown in Table 20 and in FIGS. 13 to 15.

[3] = test system: orchiectomized (ORX) rats; assay: Test Example 7: effect of oral administration on prostate, levator ani muscle and femoral bone mineral density in ORX rats; conditions: for Femoral bone mineral density / Weight of levator ani muscle / Weight of prostate: 7 days a week
Protocol: as §2, with “129” for “108”, “129.” for “108.”, “21” for “20”, “16” for “13”, “18.” for “15.”

[4] = test system: orchiectomized (ORX) rats; assay: Test Example 2: effect on prostate, levator ani muscle and femoral bone mineral density in ORX rats (subcutaneous); conditions: for Femoral bone mineral density / Weight of levator ani muscle / Weight of prostate: 5 days a week, 4 weeks
Protocol: as §1, with “1 (3, 10, 30” for “12 or 65 (30”, “compound” for “compounds”, “1.” for “12 and 65.”

[5] = test system: orchiectomized (ORX) rats; assay: Test Example 4: effect on prostate, levator ani muscle and femoral bone mineral density in ORX rats (subcutaneous)
Protocol: as §1, with “Example 113” for “Example 12”, “or 114” for “or 65”, “DHT (10” for “DHT (0.1, 1, 10”, “test. […]” for “test. Rats which had been falsely operated on without orchiectomy were used as a sham control group.”, “and 114.” for “and 65.”

[6] = test system: orchiectomized (ORX) rats; assay: Test Example 5: effect of oral administration on prostate, levator ani muscle and femoral bone mineral density in ORX rats
Protocol: Testes were removed from 12-week-old male SD rats. Starting on the next day, the compound of Example 1 (100 mg/10 ml/kg) was orally administered once daily for four consecutive weeks on a 5-day-a-week basis. As a positive control, testosterone propionate (TP) (10 mg/kg) was subcutaneously administered once daily on a continuous 5-day-a-week basis. The test compound was suspended in a 0.5% methyl cellulose solution used as a solvent whereas TP was dissolved in dimethyl sulfoxide and diluted 10-fold with olive oil for use in the test. In an ORX control group, dimethyl sulfoxide as diluted 10-fold with olive oil was used for the test. Rats which had been falsely operated on without orchiectomy were used as a sham control group. On the next day after final administration, the wet weights of the ventral prostate and levator ani muscle were measured and the right femoral bone mineral density was measured by DEXA (double energy X-ray absorption) to evaluate the in vivo efficacy of the compound of Example 1. The results are shown in Table 19 and in FIGS. 10 to 12.

[7] = 30 mg/kg orally once daily, 4 weeks
[8] = 10 mg/kg sc once daily, 5 days a week, 4 weeks
[9] = 10 mg/kg sc once daily, 5 days a week

SMILES: CC(C)(CNC(=O)c1ccc(OC(F)(F)F)cc1)[C@H]1Nc2ccc([N+](=O)[O-])cc2[C@H]2OCC[C@H]21 (relative stereo) [Example 65, (3aS*,4S*,9bS*)-N-[2-methyl-2-(8-nitro-2,3,3a,4,5,9b-hexahydro-furo[3,2-c]quinolin-4-yl)propyl]-4-trifluoromethoxybenzamide]
- Prostate weight as % of the level of the sham control group ([1]; 30 mg/kg sc): about 70%
- Femoral bone mineral density ([1]; 30 mg/kg sc once daily): 120 ± 5 mg/cm^2
- Weight of levator ani muscle ([1]; 30 mg/kg sc once daily): 67 ± 6 mg/100 g body weight
- Weight of prostate ([1]; 30 mg/kg sc once daily): 69 ± 10 mg/100 g body weight

SMILES: CC(=O)Nc1ccc(C(=O)NCC(C)(C)[C@H]2Nc3ccc(C#N)cc3[C@H]3C=CC[C@H]32)cn1 (relative stereo) [Example 108, (3aR*,4S*,9bS*)-6-acetylamino-N-[2-(8-cyano-3a,4,5,9b-tetrahydro-3H-cyclopenta[c]quinolin-4-yl)-2-methyl-propyl]nicotinamide]
- Prostate weight as % of the level of the sham control group ([2]; 30 mg/kg orally): about 70%
- Femoral bone mineral density [2, 7]: 141 ± 6 mg/cm^2
- Weight of levator ani muscle [2, 7]: 61 ± 6 mg/100 g body weight
- Weight of prostate [2, 7]: 67 ± 13 mg/100 g body weight

SMILES: CC(=O)Nc1ccc(C(=O)NCC(C)[C@H]2Nc3ccc(C#N)cc3[C@H]3OCC[C@H]32)cc1 (relative stereo) [Example 129, (3aS*,4R*,9bS*)-4-acetylamino-N-[2-(8-cyano-2,3,3a,4,5,9b-hexahydro-furo[3,2-c]quinolin-4-yl)propyl]benzamide]
- Prostate weight as % of the level of the sham control group ([3]; 30 mg/kg orally): about 85%
- Femoral bone mineral density [3, 7]: 145 ± 5 mg/cm^2
- Weight of levator ani muscle [3, 7]: 66 ± 6 mg/100 g body weight
- Weight of prostate [3, 7]: 109 ± 66 mg/100 g body weight

SMILES: C[C@]12CCC(=O)C[C@@H]1CC[C@@H]1[C@@H]2CC[C@]2(C)[C@@H](O)CC[C@@H]12 [DHT, Dihydrotestosterone, reference compound]
- Femoral bone mineral density ([4]; 0.1 mg/kg sc once daily): 114 ± 6 mg/cm^2
- Weight of levator ani muscle ([4]; 0.1 mg/kg sc once daily): 39 ± 9 mg/100 g body weight
- Weight of prostate ([4]; 0.1 mg/kg sc once daily): 38 ± 7 mg/100 g body weight
- Femoral bone mineral density ([4]; 1 mg/kg sc once daily): 115 ± 4 mg/cm^2
- Weight of levator ani muscle ([4]; 1 mg/kg sc once daily): 58 ± 5 mg/100 g body weight
- Weight of prostate ([4]; 1 mg/kg sc once daily): 100 ± 9 mg/100 g body weight
- Prostate weight as % of the level of the sham control group ([4]; 10 mg/kg sc): about 160%
- Femoral bone mineral density ([4]; 10 mg/kg sc once daily): 122 ± 3 mg/cm^2
- Weight of levator ani muscle ([4]; 10 mg/kg sc once daily): 78 ± 6 mg/100 g body weight
- Weight of prostate ([4]; 10 mg/kg sc once daily): 166 ± 26 mg/100 g body weight
- Femoral bone mineral density ([1]; 0.1 mg/kg sc once daily): 114 ± 6 mg/cm^2
- Weight of levator ani muscle ([1]; 0.1 mg/kg sc once daily): 37 ± 6 mg/100 g body weight
- Weight of prostate ([1]; 0.1 mg/kg sc once daily): 34 ± 11 mg/100 g body weight
- Femoral bone mineral density ([1]; 1 mg/kg sc once daily): 115 ± 4 mg/cm^2
- Weight of levator ani muscle ([1]; 1 mg/kg sc once daily): 47 ± 3 mg/100 g body weight
- Weight of prostate ([1]; 1 mg/kg sc once daily): 81 ± 15 mg/100 g body weight
- Prostate weight as % of the level of the sham control group ([1]; 10 mg/kg sc): about 145%
- Femoral bone mineral density ([1]; 10 mg/kg sc once daily): 122 ± 3 mg/cm^2
- Weight of levator ani muscle ([1]; 10 mg/kg sc once daily): 80 ± 5 mg/100 g body weight
- Weight of prostate ([1]; 10 mg/kg sc once daily): 146 ± 16 mg/100 g body weight
- Prostate weight as % of the level of the sham control group ([5]; 10 mg/kg sc): about 140%
- Femoral bone mineral density [5, 8]: 148 ± 5 mg/cm^2
- Weight of levator ani muscle [5, 8]: 89 ± 7 mg/100 g body weight
- Weight of prostate [5, 8]: 199 ± 27 mg/100 g body weight

SMILES: C[C@]12CCC(=O)C=C1CC[C@@H]1[C@@H]2CC[C@@]2(C)[C@H]1CC[C@]2(C)O [MT, methyl testosterone, reference compound]
- Prostate weight as % of the level of the sham control group ([2]; 100 mg/kg orally): about 120%
- Femoral bone mineral density ([2]; 100 mg/kg orally once daily): 146 ± 5 mg/cm^2
- Weight of levator ani muscle ([2]; 100 mg/kg orally once daily): 65 ± 8 mg/100 g body weight
- Weight of prostate ([2]; 100 mg/kg orally once daily): 117 ± 18 mg/100 g body weight
- Prostate weight as % of the level of the sham control group ([3]; 100 mg/kg orally): about 115%
- Femoral bone mineral density ([3]; 100 mg/kg orally once daily): 149 ± 6 mg/cm^2
- Weight of levator ani muscle ([3]; 100 mg/kg orally once daily): 63 ± 5 mg/100 g body weight
- Weight of prostate ([3]; 100 mg/kg orally once daily): 143 ± 63 mg/100 g body weight

SMILES: CCC(=O)O[C@H]1CC[C@H]2[C@@H]3CCC4=CC(=O)CC[C@]4(C)[C@H]3CC[C@]12C [TP, testosterone propionate, reference compound]
- Prostate weight as % of the level of the sham control group ([6]; 10 mg/kg sc): about 125%
- Femoral bone mineral density [6, 9]: 135 ± 8 mg/cm^2
- Weight of levator ani muscle [6, 9]: 88 ± 9 mg/100 g body weight
- Weight of prostate [6, 9]: 204 ± 29 mg/100 g body weight

From patent US20060128737A1, “Androgen receptor agonists” (KAKEN PHARMACEUTICAL CO., LTD., priority 2003, published 2006)
